Measured values reported in patent US20210382037A1, “IDENTIFICATION AND USE OF CYTOTOXIC T LYMPHOCYTE (CTL) ANTIGEN-SPECIFIC TARGET CELL KILLING ENHANCER AGENTS” (DANA-FARBER CANCER INSTITUTE, INC., priority 2017, published 2021).

Assays:
[1] = tested on: ID8-lucOS cells (OVA-expressing ID8 target cells) co-cultured with OT-I CD8+ T cells; experiment: OT-I CTL assay, high-throughput compound screen and dose-response validation; format: cell-based, mouse; details: for effect on OT-I T cell killing of ID8-lucOS target cells, dose-response validation: dose-response curves; for effect on OT-I T cell killing of ID8-lucOS target cells, dose-response validation / effect on OT-I T cell-mediated target cell lysis (normalized firefly/renilla luciferase ratio relative to DMSO): 48 hr; for effect on OT-I T cell-mediated target cell lysis (normalized firefly/renilla luciferase ratio relative to DMSO): pilot screen, 1 μM, duplicate plates
Description: 10,000 ID8-lucOS and 10,000 ID8-rluc cells were plated in 1004, of cell culture media (DMEM+10% FBS+pen/strep) in solid white, flat-bottomed, tissue culture-treated 96-well plates (Thermo Fisher, Waltham, Mass.). Overnight-stimulated OT-I CD8^+ T cells were then added at the designated Effector:Target ratios with or without compounds in a total volume of 200 μL. Plates were incubated for 48 hr at 37° C. and 5% CO2. After 48 hr timepoint, 1004, of media was removed prior to dual-luciferase assay. Briefly: 504, of homemade Dual-Glo® luciferase buffer (Lu et al. Science 343: 305-309) was added to wells and incubated for 30 min before analysis of Firefly luminescence; then 504, of Dual-Glo® Stop & Glo® buffer was added, plates were incubated for 30 min, then analyzed for Renilla luminescence. An EnSpire plate reader (PerkinElmer, Waltham, Mass.) was used for quantification of luminescence. 203 compounds (listed above; details for LINCS kinase library can be found at lincs.hms.harvard.edu/db/sm/) were screened in high-throughput at 1 μM final concentration in duplicate, in 96-well plates in a first set that contained both OT-I CTLs and ID8 target cells and in a second set that contained ID8 target cells only. No compounds were placed in edge wells and all plates contained multiple DMSO control cells. Hits were calculated based on ΔΔCt method whereby ΔΔCt=(FLucDMSO/RLucDMSO)/(FLucCompound/RLucCompound) where values >1 were assessed as having augmented CTL killing, values ˜1 were assessed as having negligible immunomodulatory effect, and values <1 were assessed as having inhibited CTL killing. Hits from the high-throughput screen were validated with dose response curves using the indicated drug concentrations.
For development of the OT-I IO assay, the ID8 murine serous ovarian carcinoma cell line was utilized due to its constitutive expression of MHC class-I, MHC haplotype compatibility with C57BL/6J mice, and dramatic IFN-γ-induced upregulation of PD-L1 (FIG. 10A and FIG. 10B). ID8s were transduced with pLVX vectors to express either firefly luciferase and OVA model antigen (“lucOS”) or renilla luciferase and no model antigen (“rluc”) (FIG. 2A). Target ID8 cell lines were mixed at a 1:1 ratio and co-cultured with CD8+ T cells isolated from the spleens of OT-I TCR-transgenic mice; OT-I mice express transgenic TCRα-V2 and TCRβ-V5 genes such that all CD8+ T cell receptors recognize chicken ovalbumin residues 257-264 ([…]) in the context of H-2Kb (Hogquist et al., 1994 Cell, 76:17-27). Target cell-T cell cultures were incubated with compounds for 48 hr and then analyzed by dual-luciferase assay whereby changes in firefly signal relative to controls indicated modulation of T cell killing by compound treatment (FIG. 2B and FIG. 2C).
A high-throughput assay capable of identifying test compounds that specifically impaired or enhanced CD8^+ T cell-mediated killing of target ID8-lucOS “clone B9” cells in an antigen-specific manner was developed, as depicted in FIG. 2B. In such assays, a 96-well tissue culture plate array format was employed, and in each well, 10,000 ID8-lucOS and 10,000 ID8-rluc were co-plated. […] The OT-I assay was then performed as a high-throughput screen (FIG. 2C) to evaluate test compounds for immunomodulatory effects upon antigen-specific tumor cell killing by cytotoxic T lymphocytes (CTLs). Inclusion of ID8-lucOS and ID8-rluc in each well of the array-formatted test compound assay provided in-plate normalization controls, which allowed for identification of test compounds that effected non-specific growth inhibition or induction of apoptosis, versus identification of modulation by screen compounds of antigen-specific tumor cell killing by cytotoxic T lymphocytes. Such high-throughput screening was performed under standard ID8 cell growth conditions (37° C. and 5% 02) for initial rounds of test compound screening. […]

[2] = tested on: IFN-γ secretion by OT-I CD8+ T cells; experiment: OT-I IFN-γ ELISA; format: cell-based, mouse; details: supernatants at 48 hr; 100, 50, 10, 5, 1 nM; E:T 1:1 and 2:1
Description: The supernatants from OT-I CTL assays, as described above, were harvested at the 48 hr timepoint prior to dual luciferase assay and analyzed for IFN-γ secretion by LEGEND MAX™ Mouse IFN-γ ELISA Kit (Biolegend, San Diego, Calif.) according to the manufacturer's protocol. […] Conditions were assayed with four replicate wells per experiment.
Cell culture media from the OT-I IO assay was harvested from wells following 48 hr of culture with a range of EGFR inhibitors and the JAK2 inhibitor AZD-1480 and assessed for IFN-γ levels by ELISA. Secretion of IFN-γ was used as a proxy for OT-I T cell effector function. […] None of the EGFR inhibitors affected IFN-γ secretion, leading to the conclusion that the immunomodulatory effect of EGFR inhibition in the assay was not due to T cell-intrinsic effects.

[3] = tested on: OVA-expressing KP cells (Kras^G12D/p53^−/− lung adenocarcinoma) co-cultured with OT-I CD8+ T cells; details: KP-Cas9 lucOS cells co-cultured with OT-I CD8+ T cells
Source text: The KP cell line was transduced with the same vectors to stably express Cas9 and the lusOS construct and co-cultured with OT-I CD8+ T cells.

r/m SCCHN = r/m SCCHN patients; cited from earlier work
MC38 colon cancer cells = format: in vivo; details: log-rank Mantel-Cox
Description: C57BL/6J stock #000664 mice (Jackson labs, Bar Harbor, Me.) were challenged subcutaneously with 500,000 MC38 colon cancer cells on their flanks and “enrolled” on-study when tumors reached 50 mm^3. […] Depleting aCD8α was administered two days prior to first aPD-1 treatment. Mice used in experiments were 7-8 weeks of age at time of tumor challenge. Endpoint was considered to be when tumors reached a size of 2000 mm^3 or as mandated by institutional guidelines due to development of necrotic lesions.
Specifically, for each of the experiments, C57BL/6J mice were challenged subcutaneously with 500,000 MC38 colon cancer cells on their flanks and “enrolled” on-study when tumors reached 50 mm^3. […] Flank tumor growth curves were analyzed using two-way ANOVA, bar graphs were analyzed using unpaired Student's t-test, and survival experiments used the log-rank Mantel-Cox test for survival analysis, all indicated with *p<0.05; **p<0.01; ***p<0.001.

[4] = tested on: MHC class-I (H-2K^b) on ID8 tumor cells; experiment: Flow cytometry of MHC class-I expression, ID8; format: cell-based, mouse; details: 100 nM, 48 hr, vs DMSO; for basal expression of MHC class-I by ID8 tumor cells: no IFN-γ; for MHC class-I expression induced by physiological levels of IFN-γ, ID8 tumor cells: with recombinant mouse IFN-γ
Description: 100,000 ID8-lucOS, ID8-lucOS sgEGFR KO, Kras^G12D;p53^−/−, and MC38 cell lines were cultured in 12-well plates in 2 mL of culture media (DMEM+10% FBS+pen/strep) alone or supplemented with 4 ng/mL recombinant mouse IFN-γ (Biolegend, San Diego, Calif.) for 48 hr. […] Data were analyzed using FlowJo (Ashland, Oreg.) software version 10.0.9.

[5] = biological target: chicken ovalbumin residues 257-264 (SIINFEKL) in the context of H-2Kb, presented on ID8-lucOS cells (mouse; chicken); experiment: cell-based or functional assay

## O=C1Nc2cc(Br)ccc2C1=C1Nc2ccccc2C1=O [6-bromoindirubin]
[1]
  effect on OT-I T cell killing of ID8-lucOS target cells, dose-response validation: only modestly augmented T cell killing
  effect on OT-I T cell-mediated target cell lysis (normalized firefly/renilla luciferase ratio relative to DMSO): significantly augmented T cell killing

## Cc1cc(Nc2nc(N[C@@H](C)c3ncc(F)cn3)ncc2Cl)n[nH]1 [AZD-1480]
[2]
  IFN-γ secretion (ELISA): significantly inhibited IFN-γ secretion in a dose-dependent manner
[1]
  effect on OT-I T cell killing of ID8-lucOS target cells, dose-response validation: significantly inhibited T cell killing
  effect on OT-I T cell-mediated target cell lysis (normalized firefly/renilla luciferase ratio relative to DMSO): inhibited T cell-mediated target cell lysis

## O=C(O)c1ccc(Nc2ncc3c(n2)-c2ccc(Cl)cc2C(c2c(F)cccc2F)=NC3)cc1 [MLN8054]
[1]
  effect on OT-I T cell-mediated target cell lysis (normalized firefly/renilla luciferase ratio relative to DMSO): inhibited T cell-mediated target cell lysis

## COc1cc(OC)c(/C=C/S(=O)(=O)Cc2ccc(OC)c(NCC(=O)O)c2)c(OC)c1 [Rigosertib]
[1]
  effect on OT-I T cell-mediated target cell lysis (normalized firefly/renilla luciferase ratio relative to DMSO): inhibited T cell-mediated target cell lysis

## CC(C)(C)c1cnc(CSc2cnc(NC(=O)C3CCNCC3)s2)o1 [SNS-032]
[1]
  effect on OT-I T cell-mediated target cell lysis (normalized firefly/renilla luciferase ratio relative to DMSO): inhibited T cell-mediated target cell lysis

## CN1C(=O)c2ccccc2N(C)c2nc(Nc3ccc(N4CCC(O)CC4)cc3)ncc21 [XMD-12-1]
[1]
  effect on OT-I T cell-mediated target cell lysis (normalized firefly/renilla luciferase ratio relative to DMSO): inhibited T cell-mediated target cell lysis

## CN(C)C/C=C/C(=O)Nc1cc2c(Nc3ccc(F)c(Cl)c3)ncnc2cc1O[C@H]1CCOC1 [afatinib]
[3]
  OT-I T cell-mediated lysis of OVA-expressing KP cells: significantly enhanced
[2]
  IFN-γ secretion (ELISA): did not appear to exert any enhancing effect
[1]; concentrations down to 10 nM
  lysis of OVA-expressing ID8 target cells: lysis of almost all OVA-expressing ID8 target cells
[1]
  effect on OT-I T cell killing of ID8-lucOS target cells, dose-response validation: significantly augmented OT-I T cell killing
r/m SCCHN
  reported ORR to monotherapy: 10%
MC38 colon cancer cells
  survival relative to controls: none
[4]
  basal expression of MHC class-I by ID8 tumor cells: significantly increased
  MHC class-I expression induced by physiological levels of IFN-γ, ID8 tumor cells: significantly increased

## C#Cc1cccc(Nc2ncnc3cc(OCCOC)c(OCCOC)cc23)c1 [erlotinib]
[3]
  OT-I T cell-mediated lysis of OVA-expressing KP cells: significantly enhanced
[2]
  IFN-γ secretion (ELISA): did not appear to exert any enhancing effect
[1]
  effect on OT-I T cell killing of ID8-lucOS target cells, dose-response validation: confirmed to augment T cell-mediated tumor cell lysis
  effect on OT-I T cell-mediated target cell lysis (normalized firefly/renilla luciferase ratio relative to DMSO): significantly augmented T cell killing
[4]
  basal expression of MHC class-I by ID8 tumor cells: significantly increased
  MHC class-I expression induced by physiological levels of IFN-γ, ID8 tumor cells: significantly increased

## COc1cc2ncnc(Nc3ccc(F)c(Cl)c3)c2cc1OCCCN1CCOCC1 [gefitinib]
[3]
  OT-I T cell-mediated lysis of OVA-expressing KP cells: significantly enhanced
[2]
  IFN-γ secretion (ELISA): did not appear to exert any enhancing effect
[1]
  effect on OT-I T cell killing of ID8-lucOS target cells, dose-response validation: significantly augmented OT-I T cell killing
[4]
  basal expression of MHC class-I by ID8 tumor cells: significantly increased
  MHC class-I expression induced by physiological levels of IFN-γ, ID8 tumor cells: significantly increased

## O=C1Nc2ccccc2/C1=C1/Nc2ccccc2C1=O [indirubicin]
[1]
  effect on OT-I T cell killing of ID8-lucOS target cells, dose-response validation: only mildly immunomodulatory

## C=CC(=O)Nc1cc(Nc2nccc(-c3cn(C)c4ccccc34)n2)c(OC)cc1N(C)CCN(C)C [osimertinib]
[1]
  effect on OT-I T cell killing of ID8-lucOS target cells, dose-response validation: modestly enhanced killing

## O=c1sn(-c2cccc3ccccc23)c(=O)n1Cc1ccccc1 [tideglusib]
[1]
  effect on OT-I T cell killing of ID8-lucOS target cells, dose-response validation: only mildly immunomodulatory

## OT-I transgenic T cell receptor (TCRα-V2 / TCRβ-V5) on OT-I CD8+ T cells
[5]
  % killing of OVA-expressing ID8-lucOS target cells (dual-luciferase assay, 48 hr): 50 % killing

## pembrolizumab
r/m SCCHN
  reported ORR to monotherapy: 16%
